Test results reported in ChEMBL document CHEMBL5465560, “Selectivity Literature for EUbOPEN Chemogenomic Library” (2024).

How the values were obtained:
[1] = molecular target: Serine/threonine-protein kinase 32C (Homo sapiens) (UniProt Q86UX6); conditions: at 10 µM
[2] = molecular target: Fibroblast growth factor receptor 4 (Homo sapiens, UniProt P22455); experiment: Selectivity interaction (KinomeScan (DiscoverX)) EUB0000655a FGFR4; conditions: at 10 µM
[3] = molecular target: T1, Ephrin type-A receptor 8 (Homo sapiens) (UniProt P29322); experiment: Selectivity interaction (KinomeScan (DiscoverX)) EUB0001079a EPHA8; conditions: at 1 µM
T1 sequence (whole entry): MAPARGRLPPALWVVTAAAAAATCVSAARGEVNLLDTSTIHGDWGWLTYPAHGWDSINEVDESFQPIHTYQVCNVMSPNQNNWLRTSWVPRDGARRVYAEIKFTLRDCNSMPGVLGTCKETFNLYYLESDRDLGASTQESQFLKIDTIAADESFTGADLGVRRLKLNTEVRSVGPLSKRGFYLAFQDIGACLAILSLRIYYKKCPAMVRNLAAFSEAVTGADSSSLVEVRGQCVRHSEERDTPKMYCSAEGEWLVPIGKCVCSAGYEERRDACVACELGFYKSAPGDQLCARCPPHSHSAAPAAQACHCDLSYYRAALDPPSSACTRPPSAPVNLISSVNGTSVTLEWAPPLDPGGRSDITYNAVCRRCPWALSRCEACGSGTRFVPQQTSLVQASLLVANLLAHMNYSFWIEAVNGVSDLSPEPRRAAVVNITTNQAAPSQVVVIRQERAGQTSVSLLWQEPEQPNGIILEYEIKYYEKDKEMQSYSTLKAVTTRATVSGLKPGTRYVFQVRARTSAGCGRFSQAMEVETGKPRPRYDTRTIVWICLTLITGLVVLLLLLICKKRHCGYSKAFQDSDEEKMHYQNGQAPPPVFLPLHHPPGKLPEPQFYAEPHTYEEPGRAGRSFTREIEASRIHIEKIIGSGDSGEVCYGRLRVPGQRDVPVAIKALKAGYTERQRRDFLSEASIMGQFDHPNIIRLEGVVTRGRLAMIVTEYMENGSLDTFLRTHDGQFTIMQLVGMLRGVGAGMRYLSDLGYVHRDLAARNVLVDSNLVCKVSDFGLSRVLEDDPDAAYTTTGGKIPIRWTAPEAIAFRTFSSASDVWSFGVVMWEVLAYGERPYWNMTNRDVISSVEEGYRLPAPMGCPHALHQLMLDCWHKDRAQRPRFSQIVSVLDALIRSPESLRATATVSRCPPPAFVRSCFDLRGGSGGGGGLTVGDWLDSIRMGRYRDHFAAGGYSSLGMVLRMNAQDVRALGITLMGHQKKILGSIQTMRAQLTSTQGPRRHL

[4] = molecular target: Wee1-like protein kinase (Homo sapiens) (UniProt P30291); experiment: Selectivity interaction (KinomeScan (DiscoverX)) EUB0001079a WEE1; conditions: at 1 µM
[5] = molecular target: Serine/threonine-protein kinase Chk2 (Homo sapiens) (UniProt O96017); experiment: Selectivity interaction (KinomeScan (DiscoverX)) EUB0000666a CHEK2; conditions: at 10 µM
[6] = molecular target: Calcium/calmodulin-dependent protein kinase type 1D (Homo sapiens) (UniProt Q8IU85); experiment: Selectivity interaction (Kinase panel (Z-LYTE Assay)) EUB0001632a CAMK1D; conditions: at 10 µM
hERG (KCNH2) = hERG (KCNH2) (Homo sapiens, UniProt Q12809); experiment: Selectivity interaction (Panel of kinases, GPCRs, ion channels and transporters (enzymatic assay)) EUB0000223bCl KCNH2
[7] = molecular target: T2, Ephrin type-A receptor 6 (Homo sapiens) (UniProt Q9UF33); experiment: Selectivity interaction (KinomeScan (DiscoverX)) EUB0000607a EPHA6; conditions: at 10 µM
T2 sequence (whole entry): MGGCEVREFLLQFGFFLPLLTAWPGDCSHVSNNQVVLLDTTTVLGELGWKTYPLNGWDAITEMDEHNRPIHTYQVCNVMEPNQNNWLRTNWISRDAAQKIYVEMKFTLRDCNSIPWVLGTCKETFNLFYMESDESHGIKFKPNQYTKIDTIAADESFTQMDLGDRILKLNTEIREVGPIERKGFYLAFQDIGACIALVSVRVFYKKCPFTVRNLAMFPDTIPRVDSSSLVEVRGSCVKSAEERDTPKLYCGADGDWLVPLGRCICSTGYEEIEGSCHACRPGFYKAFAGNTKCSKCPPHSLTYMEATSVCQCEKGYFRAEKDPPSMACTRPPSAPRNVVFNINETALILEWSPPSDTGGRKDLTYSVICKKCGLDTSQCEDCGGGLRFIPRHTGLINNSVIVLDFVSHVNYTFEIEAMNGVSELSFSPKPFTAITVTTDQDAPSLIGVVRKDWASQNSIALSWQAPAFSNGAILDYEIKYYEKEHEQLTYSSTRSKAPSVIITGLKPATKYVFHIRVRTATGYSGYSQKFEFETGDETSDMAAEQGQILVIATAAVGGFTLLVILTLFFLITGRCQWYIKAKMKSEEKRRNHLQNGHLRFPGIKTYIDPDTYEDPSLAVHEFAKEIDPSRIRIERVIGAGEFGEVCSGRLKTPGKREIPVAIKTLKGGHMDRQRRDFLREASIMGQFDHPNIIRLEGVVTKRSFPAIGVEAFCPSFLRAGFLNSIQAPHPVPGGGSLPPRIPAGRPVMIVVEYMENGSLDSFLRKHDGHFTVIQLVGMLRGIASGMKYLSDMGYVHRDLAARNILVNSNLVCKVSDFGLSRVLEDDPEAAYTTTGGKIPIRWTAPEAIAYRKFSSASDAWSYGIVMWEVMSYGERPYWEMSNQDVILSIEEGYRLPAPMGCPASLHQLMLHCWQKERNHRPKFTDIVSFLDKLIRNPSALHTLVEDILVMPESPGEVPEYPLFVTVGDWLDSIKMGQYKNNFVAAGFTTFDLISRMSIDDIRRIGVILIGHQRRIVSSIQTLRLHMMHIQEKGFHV

[8] = molecular target: Phosphorylase b kinase gamma catalytic chain, skeletal muscle/heart isoform (Homo sapiens) (UniProt Q16816); experiment: Selectivity interaction (SelectScreen profiling (Invitrogen)) EUB0000607a PHKG1; conditions: at 2 µM
[9] = molecular target: Endothelin-1 receptor (Homo sapiens) (UniProt P25101); experiment: Selectivity interaction (Panel of non-epigenetic targets (kinases, GPCRs, ion channels, and transporters, Eurofins) ) EUB0000271b EDNRA; conditions: at 1 µM
Chain of Endothelin-1 receptor (Homo sapiens) (P25101 whole entry): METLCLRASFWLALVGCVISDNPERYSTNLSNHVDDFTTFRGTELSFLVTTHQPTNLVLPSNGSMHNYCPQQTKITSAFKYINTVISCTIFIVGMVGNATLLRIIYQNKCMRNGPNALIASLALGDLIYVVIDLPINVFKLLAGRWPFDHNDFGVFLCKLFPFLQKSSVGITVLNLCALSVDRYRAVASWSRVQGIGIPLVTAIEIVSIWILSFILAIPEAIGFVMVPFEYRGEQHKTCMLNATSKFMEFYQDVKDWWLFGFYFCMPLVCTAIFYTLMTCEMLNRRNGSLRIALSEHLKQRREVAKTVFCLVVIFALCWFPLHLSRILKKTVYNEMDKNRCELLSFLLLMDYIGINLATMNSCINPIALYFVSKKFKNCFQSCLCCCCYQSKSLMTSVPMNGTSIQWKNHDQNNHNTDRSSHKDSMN

Chain of Serine/threonine-protein kinase Chk2 (Homo sapiens) (O96017 whole entry): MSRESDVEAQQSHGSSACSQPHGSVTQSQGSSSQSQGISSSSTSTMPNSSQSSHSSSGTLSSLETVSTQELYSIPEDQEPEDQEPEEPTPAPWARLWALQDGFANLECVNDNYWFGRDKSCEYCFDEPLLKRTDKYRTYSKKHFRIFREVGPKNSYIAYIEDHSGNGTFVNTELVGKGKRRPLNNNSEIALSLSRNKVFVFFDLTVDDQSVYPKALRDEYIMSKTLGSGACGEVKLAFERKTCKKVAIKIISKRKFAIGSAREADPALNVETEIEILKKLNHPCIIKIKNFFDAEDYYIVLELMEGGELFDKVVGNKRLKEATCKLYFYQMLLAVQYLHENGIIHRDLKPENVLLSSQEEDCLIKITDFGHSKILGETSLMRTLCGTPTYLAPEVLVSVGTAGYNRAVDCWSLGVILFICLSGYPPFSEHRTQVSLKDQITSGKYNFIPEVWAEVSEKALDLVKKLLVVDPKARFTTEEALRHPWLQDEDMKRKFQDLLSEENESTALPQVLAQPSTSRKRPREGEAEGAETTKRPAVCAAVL
Chain of Calcium/calmodulin-dependent protein kinase type 1D (Homo sapiens) (Q8IU85 whole entry, looked up): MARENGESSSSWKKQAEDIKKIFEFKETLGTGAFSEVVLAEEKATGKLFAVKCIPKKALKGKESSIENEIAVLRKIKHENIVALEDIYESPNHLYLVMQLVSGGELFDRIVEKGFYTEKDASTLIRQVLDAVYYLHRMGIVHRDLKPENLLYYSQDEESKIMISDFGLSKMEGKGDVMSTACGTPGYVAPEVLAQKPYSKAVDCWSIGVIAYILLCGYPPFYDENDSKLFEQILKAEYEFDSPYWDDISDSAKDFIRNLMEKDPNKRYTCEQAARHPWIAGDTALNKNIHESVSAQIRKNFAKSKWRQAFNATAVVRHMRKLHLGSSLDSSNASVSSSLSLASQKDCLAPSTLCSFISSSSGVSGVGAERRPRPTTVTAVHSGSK
Chain of hERG (KCNH2) (Q12809 whole entry): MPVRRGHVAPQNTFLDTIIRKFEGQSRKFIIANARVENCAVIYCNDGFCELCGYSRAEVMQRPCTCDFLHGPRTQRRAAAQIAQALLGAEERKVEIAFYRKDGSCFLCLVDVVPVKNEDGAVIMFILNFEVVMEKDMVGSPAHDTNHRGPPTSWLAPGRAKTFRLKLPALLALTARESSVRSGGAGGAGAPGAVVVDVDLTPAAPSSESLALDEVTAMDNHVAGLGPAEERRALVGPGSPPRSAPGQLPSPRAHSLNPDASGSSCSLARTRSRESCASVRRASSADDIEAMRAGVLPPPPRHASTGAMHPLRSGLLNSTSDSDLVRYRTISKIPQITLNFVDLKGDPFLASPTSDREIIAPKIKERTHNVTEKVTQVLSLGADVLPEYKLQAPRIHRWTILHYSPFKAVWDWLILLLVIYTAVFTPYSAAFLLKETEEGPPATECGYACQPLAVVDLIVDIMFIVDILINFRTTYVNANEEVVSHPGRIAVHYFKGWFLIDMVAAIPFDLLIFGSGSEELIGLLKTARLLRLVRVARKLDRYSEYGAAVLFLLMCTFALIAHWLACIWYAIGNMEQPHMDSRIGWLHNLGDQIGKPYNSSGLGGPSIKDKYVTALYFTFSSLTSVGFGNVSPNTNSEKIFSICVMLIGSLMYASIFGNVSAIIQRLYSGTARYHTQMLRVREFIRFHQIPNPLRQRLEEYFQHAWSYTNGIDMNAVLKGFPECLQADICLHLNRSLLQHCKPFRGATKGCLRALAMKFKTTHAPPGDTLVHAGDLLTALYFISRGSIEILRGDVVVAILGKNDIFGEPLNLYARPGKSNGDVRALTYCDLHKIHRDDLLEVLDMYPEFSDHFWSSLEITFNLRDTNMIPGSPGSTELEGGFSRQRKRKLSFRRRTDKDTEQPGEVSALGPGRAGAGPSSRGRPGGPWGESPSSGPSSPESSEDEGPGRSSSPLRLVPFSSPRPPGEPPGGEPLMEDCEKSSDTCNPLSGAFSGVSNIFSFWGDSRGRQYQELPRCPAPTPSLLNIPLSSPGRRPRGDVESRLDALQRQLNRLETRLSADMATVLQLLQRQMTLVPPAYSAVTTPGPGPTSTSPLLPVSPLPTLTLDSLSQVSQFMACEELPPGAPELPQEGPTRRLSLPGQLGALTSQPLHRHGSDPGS
Chain of Serine/threonine-protein kinase 32C (Homo sapiens) (Q86UX6 whole entry): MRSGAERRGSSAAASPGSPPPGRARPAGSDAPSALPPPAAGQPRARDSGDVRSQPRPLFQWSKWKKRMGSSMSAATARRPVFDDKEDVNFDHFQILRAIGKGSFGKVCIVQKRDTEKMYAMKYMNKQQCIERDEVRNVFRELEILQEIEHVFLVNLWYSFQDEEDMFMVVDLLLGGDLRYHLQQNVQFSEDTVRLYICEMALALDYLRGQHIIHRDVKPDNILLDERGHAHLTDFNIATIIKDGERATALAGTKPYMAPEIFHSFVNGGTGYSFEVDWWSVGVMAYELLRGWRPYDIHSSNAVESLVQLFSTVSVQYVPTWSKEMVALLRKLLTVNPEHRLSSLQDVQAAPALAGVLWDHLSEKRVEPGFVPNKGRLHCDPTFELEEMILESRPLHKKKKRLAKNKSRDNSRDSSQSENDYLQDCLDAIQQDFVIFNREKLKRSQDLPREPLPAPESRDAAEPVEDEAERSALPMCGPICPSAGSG
Chain of Phosphorylase b kinase gamma catalytic chain, skeletal muscle/heart isoform (Homo sapiens) (Q16816 whole entry, looked up, canonical isoform): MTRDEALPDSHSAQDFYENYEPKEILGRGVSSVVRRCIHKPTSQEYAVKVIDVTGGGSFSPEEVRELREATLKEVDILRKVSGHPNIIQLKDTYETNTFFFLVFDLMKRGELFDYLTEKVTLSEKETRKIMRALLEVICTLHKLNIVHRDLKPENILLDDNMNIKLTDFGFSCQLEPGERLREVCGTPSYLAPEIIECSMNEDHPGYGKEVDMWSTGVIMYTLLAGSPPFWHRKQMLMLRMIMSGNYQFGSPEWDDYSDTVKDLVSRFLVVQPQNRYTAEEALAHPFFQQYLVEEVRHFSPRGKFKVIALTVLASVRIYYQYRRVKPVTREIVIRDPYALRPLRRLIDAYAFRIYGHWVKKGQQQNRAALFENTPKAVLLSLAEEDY
Chain of Fibroblast growth factor receptor 4 (P22455 22-802 limits assumed): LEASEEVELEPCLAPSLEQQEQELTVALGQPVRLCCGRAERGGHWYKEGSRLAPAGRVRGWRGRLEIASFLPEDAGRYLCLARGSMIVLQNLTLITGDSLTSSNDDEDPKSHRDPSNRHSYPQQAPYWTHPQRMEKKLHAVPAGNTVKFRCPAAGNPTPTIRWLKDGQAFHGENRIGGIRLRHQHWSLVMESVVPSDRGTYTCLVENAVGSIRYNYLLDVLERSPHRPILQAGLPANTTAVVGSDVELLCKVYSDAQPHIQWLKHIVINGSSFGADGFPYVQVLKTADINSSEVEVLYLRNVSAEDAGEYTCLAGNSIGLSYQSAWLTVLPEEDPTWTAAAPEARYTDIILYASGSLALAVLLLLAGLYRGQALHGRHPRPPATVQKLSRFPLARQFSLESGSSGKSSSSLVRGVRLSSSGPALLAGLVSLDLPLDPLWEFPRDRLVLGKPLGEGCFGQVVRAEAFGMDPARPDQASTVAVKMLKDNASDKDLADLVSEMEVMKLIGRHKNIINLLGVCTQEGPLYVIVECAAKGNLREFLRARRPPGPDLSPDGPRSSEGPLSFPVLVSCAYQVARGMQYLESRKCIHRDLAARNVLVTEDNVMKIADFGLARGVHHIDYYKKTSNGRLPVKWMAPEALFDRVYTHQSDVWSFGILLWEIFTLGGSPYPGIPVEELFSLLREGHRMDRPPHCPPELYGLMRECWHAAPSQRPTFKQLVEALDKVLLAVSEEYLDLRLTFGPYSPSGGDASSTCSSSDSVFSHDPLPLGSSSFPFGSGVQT
Chain of Wee1-like protein kinase (Homo sapiens) (P30291 whole entry, looked up): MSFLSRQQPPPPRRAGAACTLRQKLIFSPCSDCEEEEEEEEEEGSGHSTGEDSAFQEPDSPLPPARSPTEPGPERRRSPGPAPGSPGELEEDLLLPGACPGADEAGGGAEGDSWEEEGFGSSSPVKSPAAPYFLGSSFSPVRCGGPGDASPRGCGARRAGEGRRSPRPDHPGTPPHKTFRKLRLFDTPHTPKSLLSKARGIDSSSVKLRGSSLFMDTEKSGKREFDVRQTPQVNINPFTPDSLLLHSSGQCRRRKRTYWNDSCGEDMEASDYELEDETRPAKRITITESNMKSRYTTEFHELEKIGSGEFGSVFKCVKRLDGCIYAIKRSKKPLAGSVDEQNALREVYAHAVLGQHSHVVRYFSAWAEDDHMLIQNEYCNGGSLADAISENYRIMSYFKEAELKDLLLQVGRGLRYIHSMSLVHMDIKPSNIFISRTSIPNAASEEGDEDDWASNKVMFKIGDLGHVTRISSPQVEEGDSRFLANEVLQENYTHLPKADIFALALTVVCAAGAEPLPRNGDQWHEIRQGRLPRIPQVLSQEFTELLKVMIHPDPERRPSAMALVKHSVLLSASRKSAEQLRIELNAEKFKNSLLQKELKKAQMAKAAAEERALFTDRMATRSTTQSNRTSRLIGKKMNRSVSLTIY

Work on `CCN(CC)CCCCNc1ncc2cc(-c3cc(OC)cc(OC)c3)c(NC(=O)NC(C)(C)C)nc2n1` yielded a % of control [1] of 100%.

Work on `CN(C)CCOc1ccc(-c2nc(-c3ccncc3)c(-c3ccc4c(c3)CC/C4=N\O)[nH]2)cc1` yielded a % of control [2] of 100%.

Work on `Nc1cnc(N2CCc3cc(S(=O)(=O)Nc4c(F)cc(Cl)cc4F)cc(N4CCCC4=O)c32)nc1` [TP-020n] yielded a % of control [3] of 100% and a % of control [4] of 72%.

With `O=C(NOC[C@H](O)CO)c1ccc(F)c(F)c1Nc1ccc(I)cc1F` the % of control [5] was 86%.

`Cn1cc(-n2cnc3c(NCc4nc5cc(Cl)c(Cl)cc5[nH]4)nc(N4CCOCC4)nc32)cn1` gave a % of control [6] of 2.81%.

With `COc1cc(C(=O)N2CC[C@@H](O)[C@@H](N)C2)cc2nc(-c3cc4ccccc4n3CC3CC3)n(C)c12` the XC50 (hERG (KCNH2)) was 31.6 µM.

For `CNC(=O)Nc1ccc(-c2nc(N3CC4CCC(C3)O4)c3cnn(C4CCC5(CC4)OCCO5)c3n2)cc1`, the % of control [7] was 98% and the % of inhibition [8] was 7%.

For `Cc1cc(C)cc([C@@H]2c3cc(C)ccc3NC(=O)CN2C(=O)c2ccc(Br)s2)c1`, the % of inhibition [9] was -24%.
